Two molecules from patent US20240216397A1, “COMPOSITION FOR AMELIORATING SKIN TISSUE ABNORMALITY” (Kyoto University, priority 2021, published 2024) can be followed below.

Structures can show the parent of a compound that is named as a salt.

The test system of one assay is IgE. Nature of the assay: Serum IgE level (Elisa kit) in MC903 model mice. In kind it is in vivo, C57BL/6N female mice. The following applies: serum on day 11; 5 mM topical daily + MC903; vs MC903 + EtOH. As to the method:
(§1) The effect of KUS121 application on atopic dermatitis was evaluated. For modeling atopic dermatitis, model mice of atopic dermatitis-like skin inflammation induced by repeated applications of MC903, an active vitamin D3 analog, were used. Eight-week-old C57BL/6N female mice were used (purchased from SHIMIZU Laboratory Supplies Co., Ltd.). Under isoflurane anesthesia, the following substances were applied for 10 days. After 10 μL of 5 mM KUS121 (solvent: 90% EtOH) or 90% EtOH was applied to each side of the left auricle, 10 μL of 100 μM MC903 (solvent: 100% EtOH) was applied on each side. […] The auricular thicknesses were measured immediately before the substance application using a constant pressured thickness measuring instrument (Tecloc). The thicknesses were measured immediately before the first substance application and then every other day for ten days. In addition, the effect of KUS121 alone was evaluated by the following substance applications. […] The auricular thicknesses were measured immediately before the first substance application and then every other day for ten days. […] The blood was allowed to stand at room temperature for at least 30 minutes, the serum was separated by centrifugation (1500×g, 10 minutes), and the serum levels of immunoglobulins (IgE and IgG1) was measured using Elisa kit (Bethyl Laboratories).

The test system of a further assay is skin barrier function. In words: Transepidermal water loss and auricular thickness in MC903-applied mice (skin barrier function). In kind it is in vivo, C57BL6/N female mice. The following applies: 5 mM topical daily for 12 days + MC903 every other day; vs MC903 + EtOH. As to the method:
The effect of KUS121 application on skin barrier function was evaluated by determining transepidermal water loss. Six- to eight-week-old C57BL6/N female mice (purchased from Oriental Bioservice, Inc) were used. The mice were anesthetized by subcutaneously injecting 150 μL of three types of mixed anesthesia (1 mg/mL medetomidine hydrochloride, 5 mg/mL mitazolam, 5 mg/mL butorphanol tartrate, solvent: sterile distilled water). Under anesthesia the following substances were applied for 12 days. For each mouse 10 μL of 5 mM KUS121 was applied to each side of the left auricle and 10 μL of 90% EtOH was applied to each side of the right auricle. Some mice were additionally applied with 10 μL of 100 μM MC903 on each side of both auricles every other day; KUS121 or 90% EtOH was applied at first and then MC903 was applied. The levels of transepidermal water loss was determined using APO SCAN AS-VT100 (Asahi Techno Lab. ltd.). The auricular thicknesses were measured immediately before the first substance application and daily for subsequent 12 days. The levels of transepidermal water loss were determined on days 0, 2, 4, 6, 8, 10, 11, and 12 immediately before the substance applications in each day.

For another assay, the system named is Keratin 6a (Krt6a). Nature of the assay: Krt6a mRNA expression in auricular sections, real-time PCR. Format: in vivo, C57BL/6N female mice. As to conditions: auricular sections day 11; Gapdh internal standard; 5 mM topical + MC903; vs MC903 + EtOH. How it is done: (§2) After the blood collection in Example 1, the mice were sacrificed by cervical dislocation and auricular sections were collected. Some of the auricular sections were paraffin-embedded and other sections were served for RNA extraction. The paraffin-embedded sections were observed by hematoxylin-eosin (HE) staining. RNA was extracted from the sections and cDNA was synthesized. The expression levels of various genes were analyzed by real-time PCR with SYBR Green using each cDNA as a template. Gapdh was used as an internal standard.

The test system of a further assay is KLK7. In words: KLK7 mRNA expression in auricular sections of MC903 model mice. Format: in vivo, C57BL/6N female mice. As to conditions: mice treated as in Example 1; 5 mM topical + MC903; vs MC903 + EtOH. How it is done:
as §1, with “Laboratories). […]” for “Laboratories).”

For assay [1], the system named is itching in atopic dermatitis-like skin inflammation induced by MC903. In words: Itching (scratching behavior) and auricular thickness in MC903 model mice, treatment started on day 6. Format: in vivo, C57BL/6N female mice. As to the method: The effect of KUS121 application on itching was evaluated. For modeling itching, model mice of atopic dermatitis-like skin inflammation induced by repeated applications of MC903 were used. Eight-week-old C57BL/6N female mice (purchased from SHIMIZU Laboratory Supplies Co., Ltd.) were used. Under isoflurane anesthesia, the following substances were applied for 15 days. 10 μL of 100 μM MC903 was applied on each side of both auricles every three days. To each side of the left auricle 10 μL of 5 mM KUS121 was applied daily and to each side of the right auricle 10 μL of 90% EtOH was applied daily. The application of KUS121 or 90% EtOH was started on day 6 from the first substance application; KUS121 or 90% EtOH was applied at first and then MC903 was applied. On day 12 from the start of the treatment, 1 to 2 hours after the substance application, five mice awakened from anesthesia were left in a shooting box (SHINANO manufacturing CO., LTD, W 25×D 25×H 30 cm) and their behavior was recorded from above using a video camera (Victor). Scratching behavior was evaluated by counting the total number of ear contacts by the front paws and determining the total scratching time by the hind paws within one hour from the start of the recording. The data of the five mice were summed and the total values were adopted as the results.

The subject of the next assay is Filaggrin (Flg). Nature of the assay: Flg mRNA expression in auricular sections, real-time PCR. In kind it is in vivo, C57BL/6N female mice. As to conditions: auricular sections day 11; Gapdh internal standard; 5 mM topical + MC903; vs MC903 + EtOH and EtOH alone. As to the method:
as §2

Assay [2] has as its system psoriasis induced by repeated applications of 5% imiquimod cream. In words: Model mice of imiquimod-induced psoriasis: auricular thickness. In kind it is in vivo, C57BL6/N female mice. The following applies: 5 mM topical daily for 6 or 18 days + 5% imiquimod cream; vs imiquimod + EtOH. As to the method:
The effect of KUS121 application on psoriasis was evaluated. For modeling psoriasis, model mice of psoriasis induced by repeated applications of 5% imiquimod cream was used. Six- to eight-week-old C57BL6/N female mice (purchased from Oriental Bioservice, Inc) were used. The mice were anesthetized by subcutaneously injecting 150 μL of three types of mixed anesthesia. Under anesthesia the following substances were applied for 6 or 18 days. After 10 μL of 5 mM KUS121 or 90% EtOH was applied to each side of the left auricle, 5 mg of 5% imiquimod cream (MOCHIDA PHARMACEUTICAL CO., LTD.) was applied on each side. KUS121 or 90% EtOH was applied daily and imiquimod cream was applied on days 0, 2, 4, 7, 9, 11, 14, and 16. The auricular thicknesses were measured immediately before the substance applications.

For assay [3], the system named is irritant contact dermatitis induced by sodium dodecyl sulfate (SDS). Nature of the assay: Model mice of SDS-induced irritant contact dermatitis: auricular thickness. Format: in vivo, C57BL6/J male mice. The following applies: 5 mM topical daily for 4 days + 4% SDS daily; vs SDS + EtOH. As to the method:
The effect of KUS121 application on irritant contact dermatitis was evaluated. For modeling irritant contact dermatitis, model mice of irritant contact dermatitis induced by sodium dodecyl sulfate (SDS) was used. Ten-week-old C57BL6/J male mice (purchased from Oriental Bioservice, Inc) were used. The mice were anesthetized by subcutaneously injecting 150 μL of three types of mixed anesthesia. Under anesthesia the following substances were applied for 4 days. After 10 μL of 5 mM KUS121 or 90% EtOH was applied to each side of the left auricle, 10 μL of 4% SDS was applied on each side. The substances were applied daily and the auricular thicknesses were measured immediately before the substance applications.

Assay [4] has as its system atopic dermatitis-like skin inflammation induced by repeated applications of MC903. Nature of the assay: Model mice of MC903-induced atopic dermatitis-like skin inflammation: auricle appearance and auricular thickness. Format: in vivo, C57BL/6N female mice. The following applies: 10 μL of 5 mM topically to each side of left auricle daily for 10 days, MC903 every other day; vs MC903 + EtOH. How it is done:
The effect of KUS121 application on atopic dermatitis was evaluated. For modeling atopic dermatitis, model mice of atopic dermatitis-like skin inflammation induced by repeated applications of MC903, an active vitamin D3 analog, were used. Eight-week-old C57BL/6N female mice were used (purchased from SHIMIZU Laboratory Supplies Co., Ltd.). Under isoflurane anesthesia, the following substances were applied for 10 days. After 10 μL of 5 mM KUS121 (solvent: 90% EtOH) or 90% EtOH was applied to each side of the left auricle, 10 μL of 100 μM MC903 (solvent: 100% EtOH) was applied on each side. From the start of the substance application, KUS121 or 90% EtOH was applied daily and MC903 was applied every other day. The auricular thicknesses were measured immediately before the substance application using a constant pressured thickness measuring instrument (Tecloc). The thicknesses were measured immediately before the first substance application and then every other day for ten days. In addition, the effect of KUS121 alone was evaluated by the following substance applications. To each side of the left auricle 10 μL of 5 mM KUS121 was applied daily and to each side of the right auricle 10 μL of 90% EtOH was applied daily. The auricular thicknesses were measured immediately before the first substance application and then every other day for ten days. A blood sample was collected from a buccal vein on day 11 from the first substance application (14 hours after the substance application on day 10). The blood was allowed to stand at room temperature for at least 30 minutes, the serum was separated by centrifugation (1500×g, 10 minutes), and the serum levels of immunoglobulins (IgE and IgG1) was measured using Elisa kit (Bethyl Laboratories).
The experiments were performed as in Example 1, except for KUS187 was used in place of KUS121. The appearance of the auricle was observed and the auricular thicknesses were measured. […] The mice applied with MC903 and treated with EtOH had skin redness, desquamation, and crust as well as increased auricular thickness.

A further assay concerns IgG1. In words: Serum IgG1 level (Elisa kit) in MC903 model mice. Format: in vivo, C57BL/6N female mice. As to conditions: serum on day 11; 5 mM topical daily + MC903; vs MC903 + EtOH. As to the method:
as §1

Assay [5] relates to epidermal thickening and infiltration of inflammatory cells into the dermis. Nature of the assay: HE staining of auricular sections of MC903 model mice. In kind it is in vivo, C57BL/6N female mice. As to conditions: auricular sections day 11; 5 mM topical daily + MC903; vs MC903 + EtOH. As to the method: as §2

As to `Cc1cc(F)ccc1-c1ccc(/N=N/c2cc(S(=O)(=O)O)c3ccccc3c2N)cn1` [KUS121, 4-amino-3-[6-(4-fluoro-2-methylphenyl)pyridine-3-ylazo]naphthalene-1-sulfonic acid sodium salt], the “blood level of IgE” value with IgE is listed as “lower”. For the same molecule, the auricular thickness entry with skin barrier function is “increases were suppressed”; in assay [2] it was “No difference”; in assay [3], “the increase was suppressed”; in assay [4], “less increased auricular thickness”. Also, the “transepidermal water loss from auricular skin” value with skin barrier function is on record as “increases were suppressed”. Moreover, the “Krt6a expression (messenger RNA)” value in the assay on Keratin 6a (Krt6a) was “weaker”. The “KLK7 expression (messenger RNA)” value with KLK7 was “the increase was suppressed”. Also, the “scratching behavior (number of ear contacts by front paws, scratching time by hind paws within one hour)” value in assay [1] (day 12, 5 mM topical daily from day 6, MC903 every three days, vs MC903 + EtOH) was “less”. Also, in assay [1] (treatment started after 6 days from the start of MC903 application, 5 mM topical daily), the “increase of auricular thickness” value was “suppressed”. In addition, the “Flg expression (messenger RNA)” value in the assay on Filaggrin (Flg) is “elevated”. In addition, the “skin lesion (skin redness, desquamation, crust), appearance of auricle” value in assay [4] was “less skin lesion”. For the same molecule, the “blood level of IgG1” value in the assay on IgG1 was “lower”. Moreover, the “lesions in HE staining (epidermal thickening, infiltration of inflammatory cells such as eosinophils into the dermis)” value in assay [5] is “suppressed more strongly”.

`CCCCOc1c(C=O)cc(C)cc1-c1ccc(/N=N/c2cc(S(=O)(=O)O)c3ccccc3c2N)cn1` [KUS187, 4-amino-3-[6-(3-formyl-2-butoxy-5-methylphenyl)pyridine-3-ylazo] naphthalene-1-sulfonic acid sodium salt]: in assay [4], the auricular thickness result is listed as “less increased auricular thickness” and the “skin lesion (skin redness, desquamation, crust), appearance of auricle” value is given as “less skin lesion”.
